Key:
[1] = tested on: Mouse Ischemia and Reperfusion Model; assay: Mouse ischemia and reperfusion model, infarct size; format: in vivo; conditions: mice; 30 min CAO, 24 hr CAR; i.v. infusion 0.06 mg/kg delivered at CAR; vehicle 33%
Experimental: 3-4-month-old male CS7BL/6 mice purchased from Jack-son Laboratory were anesthetized by an injection of 2% 2,2,2-tribromomethanol ([…] i.p.; Aldrich Chemical, St. Louis, Mo.). The mice were then orally intubated and mechanically ventilated. The heart was accessed via a thoracotomy at the fourth intercostals space and 7-0 silk suture passed under the left anterior descending coronary artery (LAD) at the point where it emerged from under the left atrial flap. Myocardial ischemia was achieved by occluding the LAD against a 22-gauge J-shaped stainless-steel probe and verified by visually noting the regional akinesis and blanching of the left ventricle. The chest was closed in layers, with the long end of the probe remaining outside the chest wall, allowing the animals to be removed from the ventilator. After 30 min. of ischemia, reperfusion was initiated by carefully pulling the probe out from the ligature and then removing it from the chest cavity. Following the surgical procedure, the mice were allowed to recover on a warmed surface, with supplemental oxygen delivered from a nose cone. I/R were verified by three lead electrocardiograms, which were obtained preoperatively, at the end of the ischemic interval and immediately after the initiation of reperfusion. Mice fully recovered from the surgical procedure were returned to standard animal housing conditions. […]

[2] = tested on: H9c2(2-1) myoblast cell line; assay: Adenylyl cyclase cell-based assay, forskolin-stimulated cAMP; conditions: Rattus norvegicus; H9c2 cells, forskolin 50 μM
Experimental: (§1) H9c2(2-1) myoblast cell line was obtained from ATCC (CRL-1446). Cells (10^5 cells/mL) were seeded in 24-well plates at 5×10^4 cells per well. Cells were allowed to attach over 24 hours. The cells were then washed with PBS. Serum-free DMEM supplemented with 20 mM HEPES and 0.5 mM IBMX was added and the cells were incubated at 37 deg C. for 20 minutes. An Adenylyl Cyclase inhibitor (0.001-100 μM in DMSO/water with DMSO concentration <1%) was added and the mixture was incubated at 37 deg C. for 10 minutes. Forskolin (50 μM in DMSO/water with DMSO concentration <1%) was added and the mixture was incubated at 37 deg C. for 10 minutes. As an alternative to forskolin, isoproterenol (5 mM in DMSO/water with DMSO concentration <1%) was added and the mixture was incubated at 37 deg C. for 15 minutes. The media was removed and the cells were lysed by addition of 0.1 M hydrochloric acid (200 μL) 0 deg C. Lysed mixtures were maintained at 0 deg C. for 10-20 minutes and the plates were then centrifuged at 3,000×g for 5 minutes. cAMP levels in the supernatant were measured using the ThermoScientific cAMP competitive ELISA (EMSCAMPL) kit with samples acetylated in glass or polypropylene tubes.

[3] = tested on: H9c2(2-1) myoblast cell line; assay: Adenylyl cyclase cell-based assay, isoproterenol-stimulated cAMP; conditions: Rattus norvegicus; H9c2 cells, isoproterenol 5 mM
Experimental: as §1

type VI adenylyl cyclase = target: T1, type VI adenylyl cyclase (Homo sapiens, UniProt O43306); assay: Adenylyl cyclase membrane assay, type VI (cAMP ELISA); format: biochemical, mouse; conditions: cardiomyocyte membrane preparations from transgenic mice; forskolin 50 μM
T1 construct: from tissue; host or cells: heart (cardiomyocyte) membrane preparations from transgenic mice overproducing type VI adenylyl cyclase
Experimental: (§2) Compounds were assayed for their ability to attenuate cyclic AMP (cAMP) production in cardiomyocyte membrane preparations isolated from transgenic mice. Transgenic mice were separately bred to overproduce type V adenylyl cyclase, type VI adenylyl cyclase and type II adenylyl cyclase. cAMP levels were determined using a Cyclic AMP Competitive ELISA kit purchased from ThermoFischer Scientific (Cat# EMSCAMPL).
(§3) Buffer A (pH 8) was prepared comprising final concentrations of the following: 50 mM Tris, 1 mM EGTA, 1 mM EDTA, 1 mM DTT, 100 mM sucrose, 20 μg/mL TPCK (protease inhibitor), 20 μg/mL TLCK (protease inhibitor), 1 mM PMSF (protease inhibitor), 10 μg/mL leupeptin (protease inhibitor) and 10 μg/mL aprotinin (protease inhibitor).
(§4) Buffer B (pH 8) was prepared comprising final concentrations of the following: 50 mM Tris, 1 mM EDTA, 100 mM sucrose, 0.2 mM PMSF (protease inhibitor), 2 μg/mL leupeptin (protease inhibitor) and 2 μg/mL aprotinin (protease inhibitor).
Hearts were surgically excised from transgenic mice. Each isolated heart was treated with 3-4 mL of buffer A and cooled to 0 deg C. for 5 minutes. Treated hearts were homogenized for 10 seconds using a Polytron homogenizer cooled to 0 deg C. and set to speed 6. Homogenized hearts were centrifuged at 500×g at 4 deg C. for 10 minutes. Supernatants were transferred to ultracentrifuge tubes and centrifuged at 35,000 rpm at 4 deg C. for 40 minutes. Isolated pellets were combined with buffer B (500 μL) and sonicated to a suspension. Protein concentration was determined using a commercial Bradford assay kit. Membrane preparations were stored at −80 deg C. […]
(§5) A reaction mixture was pre-incubated at 30 deg C. for 5 minutes. […] The cAMP concentration of the supernatant was measured using a Cyclic AMP Competitive ELISA kit purchased from ThermoFischer Scientific.

type V adenylyl cyclase = target: T2, type V adenylyl cyclase (Homo sapiens, UniProt O95622); assay: Adenylyl cyclase membrane assay, type V (cAMP ELISA); format: biochemical, mouse; conditions: cardiomyocyte membrane preparations from transgenic mice; forskolin 50 μM
T2 construct: from tissue; host or cells: heart (cardiomyocyte) membrane preparations from transgenic mice overproducing type V adenylyl cyclase
Experimental: as §2, §3, §4
Hearts were surgically excised from transgenic mice. Each isolated heart was treated with 3-4 mL of buffer A and cooled to 0 deg C. for 5 minutes. Treated hearts were homogenized for 10 seconds using a Polytron homogenizer cooled to 0 deg C. and set to speed 6. Homogenized hearts were centrifuged at 500×g at 4 deg C. for 10 minutes. Supernatants were transferred to ultracentrifuge tubes and centrifuged at 35,000 rpm at 4 deg C. for 40 minutes. Isolated pellets were combined with buffer B (500 μL) and sonicated to a suspension. Protein concentration was determined using a commercial Bradford assay kit. Membrane preparations were stored at −80 deg C.
Buffer R (pH 8) was prepared comprising final concentrations in water of the following: HEPES (20 mM), magnesium chloride (5 mM), EDTA (0.5 mM), ATP (0.1 mM), phospho creatinine (1 mM), creatinine phosphokinase (8 units/mL), IBMX (200 μM), forskolin (50 μM) or control (DMSO in water).
Inhibitor solutions were prepared by dilution of stock solutions of inhibitors (10 mM in DMSO) to a final concentration of 100 μM in water. Serial dilutions with water were subsequently made in order to determine IC50 values.
Reaction mixtures were prepared comprising buffer R (10 μL), inhibitor or control (10 μL), and water (75 μL).
A reaction mixture was pre-incubated at 30 deg C. for 5 minutes. A membrane preparation (e.g. 5 μL for type V Adenylyl Cyclase comprising 2 μg of membrane protein per 5 μL of preparation) was added and the mixture was incubated at 30 deg C. for 15 minutes. The reaction was stopped by addition of 0.1 M hydrochloric acid (100 μL) and cooled to 0 deg C. The resulting mixture was incubated at 0 deg C. for 60 minutes. The cAMP concentration of the supernatant was measured using a Cyclic AMP Competitive ELISA kit purchased from ThermoFischer Scientific.

type II adenylyl cyclase = target: T3, type II adenylyl cyclase (Homo sapiens, UniProt Q08462); assay: Adenylyl cyclase membrane assay, type II (cAMP ELISA); format: biochemical, mouse; conditions: cardiomyocyte membrane preparations from transgenic mice; forskolin 50 μM
T3 construct: from tissue; host or cells: heart (cardiomyocyte) membrane preparations from transgenic mice overproducing type II adenylyl cyclase
Experimental: as §2, §3, §4
Hearts were surgically excised from transgenic mice. Each isolated heart was treated with 3-4 mL of buffer A and cooled to 0 deg C. for 5 minutes. […] Protein concentration was determined using a commercial Bradford assay kit. […]
as §5

T2 sequence (O95622 whole entry): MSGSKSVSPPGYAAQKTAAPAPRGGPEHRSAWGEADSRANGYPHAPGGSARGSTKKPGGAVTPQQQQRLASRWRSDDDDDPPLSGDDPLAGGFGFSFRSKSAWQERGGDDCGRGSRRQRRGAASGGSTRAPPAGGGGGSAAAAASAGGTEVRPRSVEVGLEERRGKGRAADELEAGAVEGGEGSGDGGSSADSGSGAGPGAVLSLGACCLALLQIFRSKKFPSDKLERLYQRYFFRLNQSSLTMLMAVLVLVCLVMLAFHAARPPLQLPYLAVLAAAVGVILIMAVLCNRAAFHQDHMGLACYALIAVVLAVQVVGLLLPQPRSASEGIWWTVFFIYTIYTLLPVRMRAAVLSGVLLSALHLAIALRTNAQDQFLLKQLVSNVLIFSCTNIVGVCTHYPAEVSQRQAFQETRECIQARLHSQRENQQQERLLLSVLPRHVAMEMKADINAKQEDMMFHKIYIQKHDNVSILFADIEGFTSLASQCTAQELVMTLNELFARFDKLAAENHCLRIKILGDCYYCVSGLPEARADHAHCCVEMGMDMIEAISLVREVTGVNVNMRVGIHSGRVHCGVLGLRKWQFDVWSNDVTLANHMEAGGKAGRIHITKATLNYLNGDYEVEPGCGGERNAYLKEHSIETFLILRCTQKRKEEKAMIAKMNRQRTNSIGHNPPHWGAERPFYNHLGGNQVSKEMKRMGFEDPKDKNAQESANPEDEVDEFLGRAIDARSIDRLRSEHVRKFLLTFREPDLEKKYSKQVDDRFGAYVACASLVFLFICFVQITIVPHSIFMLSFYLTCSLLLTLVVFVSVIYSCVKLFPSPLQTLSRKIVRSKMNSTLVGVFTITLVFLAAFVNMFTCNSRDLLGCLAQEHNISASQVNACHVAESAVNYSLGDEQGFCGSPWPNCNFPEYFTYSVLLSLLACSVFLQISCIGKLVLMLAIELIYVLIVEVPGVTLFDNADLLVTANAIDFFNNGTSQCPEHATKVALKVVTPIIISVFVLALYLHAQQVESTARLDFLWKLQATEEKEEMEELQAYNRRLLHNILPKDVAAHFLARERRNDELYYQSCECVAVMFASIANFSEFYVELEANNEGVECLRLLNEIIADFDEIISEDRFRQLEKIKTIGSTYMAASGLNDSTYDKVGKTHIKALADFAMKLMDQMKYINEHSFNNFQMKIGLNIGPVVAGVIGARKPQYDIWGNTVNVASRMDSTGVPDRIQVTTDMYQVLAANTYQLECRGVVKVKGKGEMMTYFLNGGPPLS
T1 sequence (O43306 whole entry): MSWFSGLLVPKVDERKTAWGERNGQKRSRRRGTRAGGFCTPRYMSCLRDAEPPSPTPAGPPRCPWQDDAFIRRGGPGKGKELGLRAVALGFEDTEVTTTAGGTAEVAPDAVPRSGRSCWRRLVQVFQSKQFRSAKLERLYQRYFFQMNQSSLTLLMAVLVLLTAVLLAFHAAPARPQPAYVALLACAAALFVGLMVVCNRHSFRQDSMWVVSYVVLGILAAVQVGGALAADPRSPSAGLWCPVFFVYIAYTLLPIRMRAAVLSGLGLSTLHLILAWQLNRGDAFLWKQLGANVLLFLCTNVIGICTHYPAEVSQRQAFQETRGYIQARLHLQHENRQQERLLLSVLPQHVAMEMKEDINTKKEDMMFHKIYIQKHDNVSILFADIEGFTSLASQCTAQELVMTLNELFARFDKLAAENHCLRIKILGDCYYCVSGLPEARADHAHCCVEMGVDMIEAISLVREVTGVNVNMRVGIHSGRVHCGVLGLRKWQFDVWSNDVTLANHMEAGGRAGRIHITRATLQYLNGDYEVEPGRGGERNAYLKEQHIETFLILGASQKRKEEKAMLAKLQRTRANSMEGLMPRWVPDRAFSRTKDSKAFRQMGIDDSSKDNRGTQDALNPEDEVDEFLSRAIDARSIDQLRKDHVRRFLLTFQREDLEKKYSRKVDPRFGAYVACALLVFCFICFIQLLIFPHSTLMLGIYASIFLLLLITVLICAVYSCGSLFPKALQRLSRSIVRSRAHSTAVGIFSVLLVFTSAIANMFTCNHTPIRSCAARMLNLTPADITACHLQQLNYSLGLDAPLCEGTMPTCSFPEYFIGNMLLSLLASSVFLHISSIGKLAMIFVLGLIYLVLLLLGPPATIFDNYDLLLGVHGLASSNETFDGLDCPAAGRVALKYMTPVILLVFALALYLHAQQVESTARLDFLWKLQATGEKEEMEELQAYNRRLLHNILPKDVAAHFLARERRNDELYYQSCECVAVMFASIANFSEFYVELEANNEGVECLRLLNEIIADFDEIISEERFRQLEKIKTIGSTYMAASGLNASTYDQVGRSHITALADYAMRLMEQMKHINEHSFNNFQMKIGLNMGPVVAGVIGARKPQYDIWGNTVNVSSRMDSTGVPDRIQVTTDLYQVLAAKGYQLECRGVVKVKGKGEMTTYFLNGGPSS
T3 sequence (Q08462 whole entry): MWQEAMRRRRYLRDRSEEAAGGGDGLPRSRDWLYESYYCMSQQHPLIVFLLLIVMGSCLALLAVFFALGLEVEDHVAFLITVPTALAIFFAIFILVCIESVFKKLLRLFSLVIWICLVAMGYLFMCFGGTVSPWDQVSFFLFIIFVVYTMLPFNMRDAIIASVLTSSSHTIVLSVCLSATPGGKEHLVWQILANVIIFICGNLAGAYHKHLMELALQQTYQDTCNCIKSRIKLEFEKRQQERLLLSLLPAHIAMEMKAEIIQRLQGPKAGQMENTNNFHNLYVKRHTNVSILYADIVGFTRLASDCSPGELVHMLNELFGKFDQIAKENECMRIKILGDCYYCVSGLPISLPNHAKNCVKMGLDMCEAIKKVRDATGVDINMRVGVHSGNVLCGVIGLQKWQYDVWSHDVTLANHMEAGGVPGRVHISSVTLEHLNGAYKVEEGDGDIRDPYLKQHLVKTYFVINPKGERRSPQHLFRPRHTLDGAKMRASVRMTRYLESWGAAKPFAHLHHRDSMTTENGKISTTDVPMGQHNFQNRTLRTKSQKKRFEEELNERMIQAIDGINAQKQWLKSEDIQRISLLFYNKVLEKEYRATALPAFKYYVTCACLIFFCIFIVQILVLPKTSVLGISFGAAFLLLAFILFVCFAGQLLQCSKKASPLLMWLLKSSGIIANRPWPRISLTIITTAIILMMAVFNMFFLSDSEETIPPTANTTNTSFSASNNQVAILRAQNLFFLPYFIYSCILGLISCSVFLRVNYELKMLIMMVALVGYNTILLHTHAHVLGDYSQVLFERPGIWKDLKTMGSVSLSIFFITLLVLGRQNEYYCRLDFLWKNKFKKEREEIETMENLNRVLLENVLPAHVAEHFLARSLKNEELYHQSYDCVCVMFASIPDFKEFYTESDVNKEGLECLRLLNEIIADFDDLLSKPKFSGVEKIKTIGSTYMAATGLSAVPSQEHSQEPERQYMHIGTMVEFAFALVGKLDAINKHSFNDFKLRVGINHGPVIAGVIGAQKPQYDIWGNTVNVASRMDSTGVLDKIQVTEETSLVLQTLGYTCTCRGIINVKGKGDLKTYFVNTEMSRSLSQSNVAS

| SMILES | IC50 (type V adenylyl cyclase) [µM] | also measured |
| --- | --- | --- |
| Nc1ncnc2c1ncn2[C@@H]1CC[C@@H](C(=O)NO)C1 [Compound 10, (1R,3R)-3-(6-amino-9H-purin-9-yl)-N-hydroxycyclopentanecarboxamide] | 0.15 | left ventricle (LV) infarct size [1]: 20%; IC50 [2]: 9.63 µM; IC50 [3]: 27000 nM; IC50 (type VI adenylyl cyclase): 250 nM |
| Nc1nccc2c1ncn2[C@@H]1CC[C@@H](C(=O)O)C1 [Compound 10a, (1R,3R)-3-(4-amino-1H-imidazo[4,5-c]pyridin-1-yl)cyclopentanecarboxylic acid] | > 10 | – |
| Nc1nccc2c1ncn2[C@@H]1CC[C@@H](C(=O)NO)C1 [Compound 10b, (1R,3R)-3-(4-amino-1H-imidazo[4,5-c]pyridin-1-yl)-N-hydroxycyclopentanecarboxamide] | 0.29 | IC50 [2]: 8.5 µM |
| Nc1ncnc2c1ccn2[C@@H]1CC[C@@H](C(=O)O)C1 [Compound 10c, (1R,3R)-3-(4-amino-7H-pyrrolo[2,3-d]pyrimidin-7-yl)cyclopentanecarboxylic acid] | > 100 | – |
| Nc1ncnc2c1ccn2[C@@H]1CC[C@@H](C(=O)NO)C1 [Compound 10d, (1R,3R)-3-(4-amino-7H-pyrrolo[2,3-d]pyrimidin-7-yl)-N-hydroxycyclopentanecarboxamide] | 0.98 | – |
| Nc1nccc2c1ccn2[C@@H]1CC[C@@H](C(=O)O)C1 [Compound 10e, (1R,3R)-3-(4-amino-1H-pyrrolo[3,2-c]pyridin-1-yl)cyclopentanecarboxylic acid] | > 10 | – |
| Nc1ncnc2c1ncn2[C@@H]1C[C@H](CO)[C@@H](C(=O)O)C1 [Compound 10g, (1S,2S,4R)-4-(6-amino-9H-purin-9-yl)-2-(hydroxymethyl)cyclopentanecarboxylic acid] | > 100 | – |
| Nc1ncnc2c1ncn2[C@@H]1C[C@H](CO)[C@@H](C(=O)NO)C1 [Compound 10h, (1S,2S,4R)-4-(6-amino-9H-purin-9-yl)-N-hydroxy-2-(hydroxymethyl)cyclopentanecarboxamide] | 1.9 | IC50 [2]: 18 µM |
| Nc1ncnc2c1ncn2[C@@H]1C[C@@H](CO)[C@@H](C(=O)NO)C1 [Compound 10i, (1S,2R,4R)-4-(6-amino-9H-purin-9-yl)-N-hydroxy-2-(hydroxymethyl)cyclopentanecarboxamide] | 3.1 | – |
| Nc1nc(F)nc2c1ncn2[C@@H]1CC[C@@H](C(=O)NO)C1 [Compound 10j, (1R,3R)-3-(6-amino-2-fluoro-9H-purin-9-yl)-N-hydroxycyclopentanecarboxamide] | 0.08 | IC50 [2]: 2.32 µM; IC50 [3]: 2450 nM; IC50 (type VI adenylyl cyclase): 210 nM; IC50 (type II adenylyl cyclase): 5.58 µM |
| Cc1nc(N)c2ncn([C@@H]3CC[C@@H](C(=O)NO)C3)c2n1 [Compound 10k, (1R,3R)-3-(6-amino-2-methyl-9H-purin-9-yl)-N-hydroxycyclopentanecarboxamide] | 4.89 | – |
| Nc1nc(C(F)(F)F)nc2c1ncn2[C@@H]1CC[C@@H](C(=O)NO)C1 [Compound 10l, (1R,3R)-3-(6-amino-2-(trifluoromethyl)-9H-purin-9-yl)-N-hydroxycyclopentanecarboxamide] | 6.45 | – |
| Nc1nc(N)c2ncn([C@@H]3CC[C@@H](C(=O)NO)C3)c2n1 [Compound 10m, (1R,3R)-3-(2,6-diamino-9H-purin-9-yl)-N-hydroxycyclopentanecarboxamide] | 3.5 | – |
| Nc1nc(O)nc2c1ncn2[C@@H]1CC[C@@H](C(=O)NO)C1 [Compound 10n, (1R,3R)-3-(6-amino-2-hydroxy-9H-purin-9-yl)-N-hydroxycyclopentanecarboxamide] | > 300 | – |
| Cc1nc2c(N)ncnc2n1[C@@H]1CC[C@@H](C(=O)NO)C1 [Compound 10o, (1R,3R)-3-(6-amino-8-methyl-9H-purin-9-yl)-N-hydroxycyclopentanecarboxamide] | > 300 | – |
| Nc1ncnc2c1nc(C(F)(F)F)n2[C@@H]1CC[C@@H](C(=O)NO)C1 [Compound 10p, (1R,3R)-3-(6-amino-8-(trifluoromethyl)-9H-purin-9-yl)-N-hydroxycyclopentanecarboxamide] | > 300 | – |
| Nc1ncnc2c1nc(N)n2[C@@H]1CC[C@@H](C(=O)NO)C1 [Compound 10q, (1R,3R)-3-(6,8-diamino-9H-purin-9-yl)-N-hydroxycyclopentanecarboxamide] | > 300 | – |
| Nc1ncnc2c1nc(O)n2[C@@H]1CC[C@@H](C(=O)NO)C1 [Compound 10r, (1R,3R)-3-(6-amino-8-hydroxy-9H-purin-9-yl)-N-hydroxycyclopentanecarboxamide] | > 300 | – |
| C[C@H]1C[C@@H](n2cnc3c(N)ncnc32)C[C@@H]1C(=O)NO [Compound 10s, (1S,2S,4R)-4-(6-amino-9H-purin-9-yl)-N-hydroxy-2-methylcyclopentanecarboxamide] | 0.51 | – |
| C[C@H]1C[C@@H](n2cnc3c(N)nc(F)nc32)C[C@@H]1C(=O)NO [Compound 10t] | 0.13 | – |
| Nc1nc(F)cc2c1ncn2[C@@H]1CC[C@@H](C(=O)NO)C1 [Compound 10v, (1R,3R)-3-(4-amino-6-fluoro-1H-imidazo[4,5-c]pyridin-1-yl)-N-hydroxycyclopentanecarboxamide] | 0.03 | IC50 [2]: 1.14 µM; IC50 [3]: 1890 nM; IC50 (type VI adenylyl cyclase): 30 nM; IC50 (type II adenylyl cyclase): 1.11 µM |
| Nc1ncnc2c1ncn2[C@@H]1O[C@H](CO)[C@@H](O)[C@H]1O [adenosine, Adenosine, reference compound] | – | left ventricle (LV) infarct size [1]: 38% |

From patent publication US10081633B2, “Adenylyl cyclase inhibitors, pharmaceutical compositions and method of use thereof” (priority 2016, dated 2018)
